Data on three compounds can be found in US7341836B2, “Modified cyclic nucleotide gated ion channels” (The Regents of the University of Colorado, priority 2001, dated 2008).

Each structure is given as a SMILES string. “Also recorded” adds a separate entry of the source. Some results are limits rather than exact numbers.

Assay [1] has as its target T1, PDE XI (Homo sapiens, UniProt Q9HCR9).
T1 construct: host or cells: heterologously expressed
The settings on record: cited from earlier work.

In assay [2] the test system is rat olfactory CNG channel α subunit. As to the kind of experiment: Excised inside-out patch recordings, cyclic nucleotide dose-response of CNG channel constructs. The following applies: 100 μM IBMX; 1 μM PGE1. The assay is classed as biochemical. Summed up: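 Inside-out patches were excised and recorded at 20-21° C., with symmetrical 130 mM NaCl, 2 mM HEPES, 0.02 mM EDTA, 1 mM EGTA, pH 7.6. Currents were elicited by 250 ms pulses to +50 and −50 mV; cyclic nucleotide-induced current was taken as the difference with and without cNMP. cAMP and cGMP dose-responses were fitted to the Hill equation for K1/2 and N.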

Assay [3] concerns PDE IV. The following applies: cited from earlier work.
The subject of assay [4] is PDE VI. The following applies: cited from earlier work.

T1 sequence (Q9HCR9 445-933 limits assumed): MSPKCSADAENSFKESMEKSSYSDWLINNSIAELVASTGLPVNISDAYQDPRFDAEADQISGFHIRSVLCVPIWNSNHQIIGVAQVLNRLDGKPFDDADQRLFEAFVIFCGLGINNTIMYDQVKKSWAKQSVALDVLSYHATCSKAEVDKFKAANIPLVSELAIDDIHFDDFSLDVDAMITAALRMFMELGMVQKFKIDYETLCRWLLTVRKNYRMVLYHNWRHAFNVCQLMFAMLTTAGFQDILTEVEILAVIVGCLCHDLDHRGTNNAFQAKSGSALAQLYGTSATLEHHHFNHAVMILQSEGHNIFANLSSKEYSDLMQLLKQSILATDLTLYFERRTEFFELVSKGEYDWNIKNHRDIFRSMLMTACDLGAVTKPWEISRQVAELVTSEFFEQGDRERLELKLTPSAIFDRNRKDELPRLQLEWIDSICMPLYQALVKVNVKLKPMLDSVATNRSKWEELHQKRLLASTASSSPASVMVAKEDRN

In the case of `COc1ccc(C2CNC(=O)C2)cc1OC1CCCC1` (stereo not drawn) [Rolipram], in assay [1], the concentration for half-maximal inhibition (IC50) was greater than 100 µM.

With `CCCCOc1cc(CC2CNC(=O)N2)ccc1OC` (stereo not drawn) [RO-20-1724, 4-(3-butoxy-4-methoxybenzyl)-2-imidazolidinone], the “effect on CNG channel activity in excised membrane patches” value in assay [2] is recorded as “no effect on channel activity”.

As to `CC(C)Cn1c(=O)n(C)c(=O)c2[nH]cnc21` [IBMX, 3-isobutyl-1-methylxanthine], the IC50 in assay [1] is 49.8 µM; in assay [3], 5 to 15 µM; in assay [4], 10 µM. Further, the “effect on CNG channel activity in excised membrane patches” value in assay [2] is on record as “did not alter CNG channel activity; also recorded: no effect on channel activity”.
